In publication PMC11091117, “A fluorescently-tagged tick kinin neuropeptide triggers peristalsis and labels tick midgut muscles” (Scientific Reports, 2024):
Entries after “also recorded” stand apart in the source; their conditions may differ.

Test system: tick midgut
Assay: Tick midgut contraction assay with EthoVision video analysis
Set-up: species or system Rhipicephalus sanguineus
Text: Individual female ticks were immobilized on a Petri dish filled with wax by submerging their legs in melted wax heated with a soldering pencil (Electronic Control Soldering Station EC 1000, Weller, Apex, North Carolina, USA). Females were dissected under physiological saline following the protocol described by Tidwell et al.[51]. The tick was cut along the edge of the scutum/alloscutum using a stainless steel #12 scalpel blade (Integra Miltex, York, PA, USA), after which the scutum was removed with a pair of fine forceps. To expose the midgut for removal, the tracheae, Malpighian tubules, ovaries, rectal sac, and synganglion were removed with fine forceps in that order. The midgut was then carefully removed and placed into 200 µL of fresh tick saline (See Reagents and Peptides) on a single gasketed incubation chamber (500 µL, Size 22 × 40 mm, Electron Microscopy Sciences, Hatfield, PA). The midguts were then rinsed three times with the physiological tick saline for subsequent fluorescent labeling or activity experiments.
Midguts were dissected from immobilized female ticks under tick saline, as described under the Midgut Dissection. Ten different midguts were used for each of the two treatments, and ticks were of the same age and batch and had been maintained under the same conditions. Dissected midguts were placed individually into 200 µL of tick saline for 10 min at 28 °C on a gasketed glass coverslip (500 µL, Size 22 × 40 mm) serving as incubation chamber. […] After the final wash and removal of saline, 200 µL of saline were added, and a microscopy coverslip (24 × 60 mm, VWR, Radnor, PA) was placed over the gasketed portion of the incubation chamber, which height (0.5 mm) fits to prevent the midgut from floating, but still allows midgut peristalsis. The midguts were observed and filmed under a dissecting microscope (Olympus SZ61, Japan) equipped with an Infinity 5 camera (Teledyne Lumenera, Ottawa, ON, Canada). All videos were recorded for 1 min with the INFINITY ANALYZE 7 software (Teledyne Lumenera) at 30 frames/second with a 2464 × 2056 resolution. The field of view in all videos recorded represents 4 × 3.5 mm to capture the entire tick midguts under saline. All video files in Windows Media Video (.wmv) format obtained from the Infinity Analyze 7 software were converted to the MP4 format using CloudConvert (cloudconvert.com, Lunaweb, Munich, Germany) for analyses with the EthoVision XT 17 software (Noldus Information Technology, Wageningen, The Netherlands).
We used the EthoVision 17 XT software to quantify the “activity” (pixel change) of the midguts from the videos recorded. This software defines activity as the percentage of pixels that have changed in the entire defined arena between the current image and previous image. The videos are recorded in 2464 × 2056 resolution and the arena is set to be the entire video screen. Video files were uploaded into the program and analyzed starting from time zero to the end of the 60 s video. Detection settings for activity included the activity threshold which was set to 5 to achieve zero detection when the midgut was immobile. Although the video captured 30 frames (images) per s, for the video analysis we chose a “sample rate” of 7 samples /s, with sample rate being the number of images from the video the EthoVision program analyzes per second. To calculate activity, each pixel of the video image was compared from one image to the next, and the proportion of pixel changes was calculated by dividing the number of pixels changed from one image to the next by the total number of pixels in the image. Care was given for the midgut to occupy most of the arena, as the activity analyses will reflect the midgut movement as a proportion of the total arena. Midgut activity is observed as pixel changes, which are represented by the red-colored pixels in the S4 video. The mean pixel change per midgut was then determined by averaging the pixel changes from all samples within the recording period. […]

TMR-C-GTGEDQAFSPWGamide [TMR-RK8]
midgut contractions, S4 Video (in words) (1 µM TMR-RK8, after 1 min of exposure, 4X speed): Rapid contractions were observed shortly after treatment
midgut peristalsis/contractions (in words) (10 µM, 1 min, 28 °C, midguts of unfed females ex vivo, video recorded 1 min): inducing significant midgut peristalsis; also recorded: induced peristalsis
mean activity (mean pixel change, percentage of pixels changed in arena) (10 µM, 1 min, rinsed twice, 28 °C, tick saline, 60 s video, 7 samples/s, EthoVision XT 17, activity threshold 5, N = 10 midguts): 1%
mean activity of midguts compared to TMR-Scrambled (in words) (10 µM, N = 10 vs N = 10, for the duration of the videos): higher mean activity
pixels changing from each sample to the next (of 5,065,984 pixels per sample, 10 µM, 1 min, 28 °C, N = 10): about 50,660 pixels
movement of midguts relative to TMR-Scrambled treated midguts (ratio of mean activity, 10 µM, N = 10 per treatment): 10 factor
